US9315811B2, “Methods for modulating kallikrein (KLKB1) expression” (Ionis Pharmaceuticals, Inc., priority 2011, dated 2016)
Oligonucleotides are written 5' to 3', each unit as a sugar letter and its base; * is a phosphorothioate linkage, no mark a phosphodiester; rarer units and linkages stand in square brackets, end groups in braces. Plain capitals give the bases only. e = 2'-O-(2-methoxyethyl) (MOE); [5mC] = 5-methylcytosine; d = 2'-deoxy (DNA)

Tests used:
[1] = test system: Kallikrein mRNA; test: Liver RT-PCR analysis of kallikrein mRNA (Example 9); type: in vivo, mouse; details: for Percent inhibition of kallikrein mRNA expression compared to the untreated PBS control: all groups ISIS 461756 12.5 mg/kg twice a week, ASO 40 mg/kg or PBS s.c. twice a week 3 weeks
Description: (§1) One group of 8 mice was treated with 40 mg/kg ISIS 482584 administered subcutaneously twice a week for 3 weeks (weekly dose of 80 mg/kg). A second group of 8 mice was treated with 40 mg/kg of the control oligonucleotide, ISIS 141923, administered subcutaneously twice a week for 3 weeks (weekly dose of 80 mg/kg). A third group of 8 mice was treated with PBS administered subcutaneously twice a week for 3 weeks. On day 14, all the groups were treated with 12.5 mg/kg ISIS 461756 administered subcutaneously twice a week for 3 weeks (weekly dose of 25 mg/kg). A control group of mice was treated with PBS administered subcutaneously twice a week for 3 weeks but was not administered ISIS 461756.
(§2) At the end of the treatment period, all the groups were injected with 30 mg/kg of Evans Blue solution into the tail vein. The mice were sacrificed 30 min after the Evans Blue solution administration and colons, feet, ears, and intestines were harvested. The liver was also harvested for RNA analysis.
RNA was isolated from the liver for RT-PCR analysis of C1-INH and kallikrein mRNAs. The primer probe set for C1-INH is RTS3218 (forward sequence […], designated herein as SEQ ID NO: 24; reverse sequence […], designated herein as SEQ ID NO: 25; probe sequence […], designated herein as SEQ ID NO: 26). The primer probe set for kallikrein is RTS3287 (forward sequence […], designated herein as SEQ ID NO: 27; reverse sequence […], designated herein as SEQ ID NO: 28; probe sequence […], designated herein as SEQ ID NO: 29). The results are presented in Table 20 as percent inhibition compared to the PBS control not treated with ISIS 461756.

[2] = test system: C1-INH mRNA; test: Liver RT-PCR analysis of C1-INH mRNA (Example 9); type: in vivo, mouse
Description: as §1, §2
RNA was isolated from the liver for RT-PCR analysis of C1-INH and kallikrein mRNAs. The primer probe set for C1-INH is RTS3218 (forward sequence […], designated herein as SEQ ID NO: 24; reverse sequence […], designated herein as SEQ ID NO: 25; probe sequence […], designated herein as SEQ ID NO: 26). […]

[3] = test system: mouse kallikrein mRNA; test: Antisense inhibition of murine kallikrein mRNA in mouse primary hepatocytes (Example 1); type: cell-based
Description: Antisense oligonucleotides targeting a murine kallikrein nucleic acid were tested for their effects on kallikrein mRNA in vitro. Cultured mouse primary hepatocytes at a density of 10,000 cells per well were transfected using Cytofectin reagent with 12.5 nM, 25 nM, 50 nM, 100 nM, or 200 nM of antisense oligonucleotide. After a treatment period of approximately 24 hours, RNA was isolated from the cells and mouse kallikrein mRNA levels were measured by quantitative real-time PCR using the murine primer probe set RTS3313 (forward sequence […], designated herein as SEQ ID NO: 21; reverse sequence […], designated herein as SEQ ID NO: 22; probe sequence […], designated herein as SEQ ID NO: 23). Kallikrein mRNA levels were adjusted according to total RNA content, as measured by RIBOGREEN.
The chimeric antisense oligonucleotides were designed as 5-10-5 MOE gapmers. The gapmers are 20 nucleotides in length, wherein the central gap segment is comprised of ten 2′-deoxynucleosides and is flanked on both sides (in the 5′ and 3′ directions) by wings comprising five nucleosides each. Each nucleoside in the 5′ wing segment and each nucleoside in the 3′ wing segment has a 2′-MOE modification. The internucleoside linkages throughout each gapmer are phosphorothioate (P═S) linkages. All cytosine residues throughout each gapmer are 5-methylcytosines.
ISIS 482584 ([…]; incorporated herein as SEQ ID NO: 40), which was one of the antisense oligonucleotides tested in the assay, is targeted to SEQ ID NO: 11 (GENBANK Accession No. NM_008455.2) with a target start site of 1586 and a target stop site of 1605.

[4] = test system: Kallikrein mRNA; test: Kallikrein mRNA and protein expression in mice after subcutaneous ASO (Example 1); type: in vivo, mouse; details: 3 weeks
Description: C57BL/6J-Tyrc-2J mice were treated with 2.5 mg/kg, 5.0 mg.kg, 10.0 mg/kg, 20.0 mg/kg, 40.0 mg/kg, or 80.0 mg/kg (corresponding to 5.0 mg/kg, 10.0 mg/kg, 20.0 mg/kg, 40 mg/kg, 80 mg/kg, or 160 mg/kg per week) of ISIS 482584 administered subcutaneously twice a week for 3 weeks. […] Kallikrein mRNA was reduced by greater than 90% inhibition at a dose of 160 mg/kg per week.

[5] = test system: high molecular weight kininogen (HMWK); test: Western blot quantification of HMWK and HMWK cleavage product by densitometer (Example 5); type: in vivo, mouse; details: vs PBS control, dose-dependent
Description: All the groups were then injected with 30 mg/kg of Evans Blue solution in the tail vein. The mice were sacrificed 30 min after the Evans Blue solution administration and colons, feet, and ears were harvested and examined for permeability defects. Blood samples were taken through cardiac puncture.
Treatment with kallikrein antisense oligonucleotide results in stabilization of HMWK. Thus, vascular permeability is reduced in ISIS 482584-treated groups in a dose-dependent manner. […] Thus, reduced HMWK is caused by kallikrein cleavage of HMWK into cleavage products (including bradykinin and HKa). Data are presented in Intensity Units as measured by densitometer.

[6] = test system: mice; test: Evans Blue vascular permeability induced by ISIS 461756 (Example 9); details: mouse, in vivo
Description: Vascular permeability induced by ISIS 461756, an antisense oligonucleotide which targets murine C1 inhibitor mRNA, increases vascular permeability in mice and replicates the pathology of hereditary angioedema. The effect of ISIS 482584 on this model was evaluated.
as §1
At the end of the treatment period, all the groups were injected with 30 mg/kg of Evans Blue solution into the tail vein. […]
The harvested tissues from the feet, colon, and intestines were placed in formamide solution overnight to leach out the Evans Blue dye. […] The color intensity of the dye-infused formamide solution was then measured at OD600nm. […]

Substance	Percent inhibition of kallikrein mRNA expression compared to the untreated PBS control [1]	C1-INH mRNA expression [2]	% inhibition ([3]; 12.5 nM)	% inhibition ([3]; 25.0 nM)	% inhibition ([3]; 50.0 nM)	% inhibition ([3]; 100.0 nM)	% inhibition ([3]; 200.0 nM)	Kallikrein mRNA inhibition ([4]; 160 mg/kg per week s.c.)	Kallikrein mRNA and protein expression ([4]; 5.0-160 mg/kg per week s.c.)	HMWK levels [5]	kallikrein expression [1]	vascular permeability induced by ISIS 461756 [6]
ISIS 141923: control oligonucleotide, a 5-10-5 MOE gapmer with no known murine target; CCTTCCCTGAAGGTTCCTCC (SEQ ID NO: 42) (sugars from the 5' end e5 d10 e5, backbone and methylation of C not given here) [reference compound]	0%	–	–	–	–	–	–	–	–	–	–	–
ISIS 461756: 5-10-5 MOE gapmer antisense oligonucleotide which targets murine C1 inhibitor mRNA; AAAGTGGTTGATACCCTGGG (SEQ ID NO: 41) (sugars from the 5' end e5 d10 e5, backbone and methylation of C not given here) [reference compound]	0%	significantly reduced	–	–	–	–	–	–	–	–	–	–
ISIS 482584: 5-10-5 MOE gapmer antisense oligonucleotide targeting murine kallikrein; GGCATATTGGTTTTTGGAAT (SEQ ID NO: 40) (antisense eG*eG*e[5mC]*eA*eT*dA*dT*dT*dG*dG*dT*dT*dT*dT*dT*eG*eG*eA*eA*eT)	78%	–	0%	36%	17%	60%	83%	greater than 90%	reduced in a dose dependent manner	higher levels of HMWK	significantly reduced	prevented vascular permeability
